From PMC4552603 (Pharmacology, biochemistry, and behavior, 2015)
Counter-ions that a name gives are not always drawn.

Columns and labels:
rats [1] = conditions: rat, in vivo
rats [2] = assay: Conditioned place preference; assay type: in vivo, rat; conditions: morphine 1 mg/kg s.c.; for mean change from baseline (time in drug-paired compartment): rats

Question: CN1CC[C@]23c4c5ccc(O)c4O[C@H]2[C@@H](O)C=C[C@H]3[C@H]1C5 [Morphine, Morphine sulfate] was tested. Which “responding (drug infusions) vs saline” value (rats [1]) did it give?
Answer: significantly greater responding than saline

Question: And the place preference (rats [2]; vs saline, two-way ANOVA p = 0.0013)?
Answer: significant place preference

Question: And the “mean change from baseline (time in drug-paired compartment)” value (rats [2]; test session one)?
Answer: +83.4 sec

Question: What about the “mean change from baseline (time in drug-paired compartment)” value (rats [2]; test session two) of the same compound?
Answer: +96.62 sec
